According to article PMC10382584, “Macrocyclization of linear molecules by deep learning to facilitate macrocyclic drug candidates discovery” (Nature Communications, 2023):

Legend:
Assay in all cases: biochemical
Design in all cases: DiscoveRx KINOMEscan competition binding, percent of DMSO control signal at 100 nM
Settings in all cases: read-out: Fig. 4a / Percent Control / Compound 1; percent of DMSO control, competition binding
TTK = TTK (Homo sapiens, UniProt P33981)
DDR1 = DDR1 (Homo sapiens, UniProt Q08345)
BRSK1 = BRSK1 (Homo sapiens, UniProt Q8TDC3)
CDKL2 = CDKL2 (Homo sapiens, UniProt Q92772)
ERK8 = target: T1, ERK8 (Homo sapiens, UniProt Q8TD08)
T1 construct: gene MAPK15

PRKCI = PRKCI (Homo sapiens, UniProt P41743)
TRPM6 = TRPM6 (Homo sapiens, UniProt Q9BX84)
GRK7 = GRK7 (Homo sapiens, UniProt Q8WTQ7)
TEC = TEC (Homo sapiens, UniProt P42680)
[1] = target: T2, ABL1(T315I)-phosphorylated (Homo sapiens, UniProt P00519, T315I)
T2 construct: phosphorylated

FLT3(D835Y) = FLT3(D835Y) (Homo sapiens, UniProt P36888, D835Y)
[2] = target: T3, RSK4(Kin.Dom.1-N-terminal) (Homo sapiens, UniProt Q9UK32)
T3 construct: gene RPS6KA6; Kin.Dom.1-N-terminal

BMPR1A = BMPR1A (Homo sapiens, UniProt P36894)
GSK3A = GSK3A (Homo sapiens, UniProt P49840)
CDK4-cyclinD1 = target: T4, CDK4-cyclinD1 (Homo sapiens, UniProt P11802)
T4 construct: cyclinD1

CLK2 = CLK2 (Homo sapiens, UniProt P49760)
YANK3 = target: T5, YANK3 (Homo sapiens, UniProt Q86UX6)
T5 construct: gene STK32C

NLK = NLK (Homo sapiens, UniProt Q9UBE8)
ERBB3 = ERBB3 (Homo sapiens, UniProt P21860)
MARK4 = MARK4 (Homo sapiens, UniProt Q96L34)
CDK4-cyclinD3 = target: T6, CDK4-cyclinD3 (Homo sapiens, UniProt P11802)
T6 construct: cyclinD3

IKK-epsilon = target: T7, IKK-epsilon (Homo sapiens, UniProt Q14164)
T7 construct: gene IKBKE

[3] = target: T8, RSK1(Kin.Dom.2-C-terminal) (Homo sapiens, UniProt Q15418)
T8 construct: gene RPS6KA1; Kin.Dom.2-C-terminal

PLK4 = PLK4 (Homo sapiens, UniProt O00444)
DYRK2 = DYRK2 (Homo sapiens, UniProt Q92630)
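Note: KINOMEscan kinase panel binding assay, signal normalized between DMSO as 100% and a positive control compound as 0%.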

Chain of GRK7 (Q8WTQ7 whole entry): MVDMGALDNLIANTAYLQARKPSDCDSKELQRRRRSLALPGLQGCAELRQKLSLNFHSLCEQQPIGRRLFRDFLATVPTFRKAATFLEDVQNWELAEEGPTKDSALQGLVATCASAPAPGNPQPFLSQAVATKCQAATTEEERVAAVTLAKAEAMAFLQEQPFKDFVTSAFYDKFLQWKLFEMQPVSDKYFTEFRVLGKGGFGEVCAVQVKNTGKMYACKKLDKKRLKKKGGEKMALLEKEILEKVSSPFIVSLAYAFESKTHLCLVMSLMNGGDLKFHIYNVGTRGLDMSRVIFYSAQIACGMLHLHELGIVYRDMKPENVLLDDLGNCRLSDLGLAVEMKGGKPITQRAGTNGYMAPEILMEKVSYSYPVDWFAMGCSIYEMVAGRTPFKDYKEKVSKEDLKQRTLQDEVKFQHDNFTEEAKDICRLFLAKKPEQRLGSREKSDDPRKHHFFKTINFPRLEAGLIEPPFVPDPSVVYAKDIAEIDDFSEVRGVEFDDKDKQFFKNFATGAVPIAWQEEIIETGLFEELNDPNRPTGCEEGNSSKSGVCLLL
Chain of TEC (P42680 whole entry): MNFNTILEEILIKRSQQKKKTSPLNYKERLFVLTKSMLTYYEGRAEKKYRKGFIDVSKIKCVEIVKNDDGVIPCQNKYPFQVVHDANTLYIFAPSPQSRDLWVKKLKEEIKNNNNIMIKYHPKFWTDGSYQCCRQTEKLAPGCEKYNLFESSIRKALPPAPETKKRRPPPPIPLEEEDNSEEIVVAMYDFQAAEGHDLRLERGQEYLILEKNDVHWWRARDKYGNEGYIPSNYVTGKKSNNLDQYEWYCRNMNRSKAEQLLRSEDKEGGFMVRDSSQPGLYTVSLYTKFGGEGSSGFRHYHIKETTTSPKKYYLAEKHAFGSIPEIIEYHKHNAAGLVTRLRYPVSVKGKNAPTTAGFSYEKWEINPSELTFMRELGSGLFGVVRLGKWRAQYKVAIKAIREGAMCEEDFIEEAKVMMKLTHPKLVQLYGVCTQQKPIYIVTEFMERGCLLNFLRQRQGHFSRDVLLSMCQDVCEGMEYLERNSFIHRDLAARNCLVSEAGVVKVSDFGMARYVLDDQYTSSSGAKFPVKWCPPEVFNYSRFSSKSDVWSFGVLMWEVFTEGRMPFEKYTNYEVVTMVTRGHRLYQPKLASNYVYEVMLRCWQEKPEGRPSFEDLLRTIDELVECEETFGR
Chain of TTK (P33981 whole entry): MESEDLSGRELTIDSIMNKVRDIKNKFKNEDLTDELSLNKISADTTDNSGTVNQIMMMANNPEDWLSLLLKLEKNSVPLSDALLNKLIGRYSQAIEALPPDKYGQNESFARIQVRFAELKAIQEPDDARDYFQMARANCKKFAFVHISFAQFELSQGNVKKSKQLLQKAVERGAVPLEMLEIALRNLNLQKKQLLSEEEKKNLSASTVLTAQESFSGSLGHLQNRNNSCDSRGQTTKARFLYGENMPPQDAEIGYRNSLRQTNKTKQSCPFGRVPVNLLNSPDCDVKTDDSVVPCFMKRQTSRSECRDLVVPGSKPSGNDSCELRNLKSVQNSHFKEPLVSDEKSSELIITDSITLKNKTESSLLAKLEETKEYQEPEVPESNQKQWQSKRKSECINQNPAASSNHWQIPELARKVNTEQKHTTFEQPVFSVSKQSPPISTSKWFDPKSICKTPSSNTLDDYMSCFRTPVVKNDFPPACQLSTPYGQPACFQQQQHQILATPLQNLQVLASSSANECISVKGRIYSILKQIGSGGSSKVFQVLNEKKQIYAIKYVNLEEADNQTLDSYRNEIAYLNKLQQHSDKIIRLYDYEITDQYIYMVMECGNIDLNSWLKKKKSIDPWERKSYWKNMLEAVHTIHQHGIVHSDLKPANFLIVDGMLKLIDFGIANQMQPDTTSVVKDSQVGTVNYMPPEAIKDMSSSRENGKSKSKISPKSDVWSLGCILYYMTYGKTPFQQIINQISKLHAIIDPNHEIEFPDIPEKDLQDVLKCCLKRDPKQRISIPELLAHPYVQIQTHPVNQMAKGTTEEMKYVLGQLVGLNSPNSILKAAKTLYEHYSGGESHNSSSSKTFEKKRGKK
Chain of CDKL2 (Q92772 whole entry): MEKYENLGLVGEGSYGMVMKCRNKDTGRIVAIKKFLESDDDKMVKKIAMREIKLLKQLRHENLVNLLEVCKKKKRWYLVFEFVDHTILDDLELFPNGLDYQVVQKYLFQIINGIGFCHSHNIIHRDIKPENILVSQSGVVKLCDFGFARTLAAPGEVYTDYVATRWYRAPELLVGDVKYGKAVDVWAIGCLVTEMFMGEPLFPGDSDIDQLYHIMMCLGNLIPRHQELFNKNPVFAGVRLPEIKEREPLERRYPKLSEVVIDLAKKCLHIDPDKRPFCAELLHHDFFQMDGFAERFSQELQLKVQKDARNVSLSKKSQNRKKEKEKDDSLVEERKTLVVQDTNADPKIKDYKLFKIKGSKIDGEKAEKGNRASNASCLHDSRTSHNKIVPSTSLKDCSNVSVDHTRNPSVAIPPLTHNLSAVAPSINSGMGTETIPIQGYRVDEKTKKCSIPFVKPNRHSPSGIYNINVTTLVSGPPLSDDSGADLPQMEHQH
T3 sequence (Q9UK32 whole entry): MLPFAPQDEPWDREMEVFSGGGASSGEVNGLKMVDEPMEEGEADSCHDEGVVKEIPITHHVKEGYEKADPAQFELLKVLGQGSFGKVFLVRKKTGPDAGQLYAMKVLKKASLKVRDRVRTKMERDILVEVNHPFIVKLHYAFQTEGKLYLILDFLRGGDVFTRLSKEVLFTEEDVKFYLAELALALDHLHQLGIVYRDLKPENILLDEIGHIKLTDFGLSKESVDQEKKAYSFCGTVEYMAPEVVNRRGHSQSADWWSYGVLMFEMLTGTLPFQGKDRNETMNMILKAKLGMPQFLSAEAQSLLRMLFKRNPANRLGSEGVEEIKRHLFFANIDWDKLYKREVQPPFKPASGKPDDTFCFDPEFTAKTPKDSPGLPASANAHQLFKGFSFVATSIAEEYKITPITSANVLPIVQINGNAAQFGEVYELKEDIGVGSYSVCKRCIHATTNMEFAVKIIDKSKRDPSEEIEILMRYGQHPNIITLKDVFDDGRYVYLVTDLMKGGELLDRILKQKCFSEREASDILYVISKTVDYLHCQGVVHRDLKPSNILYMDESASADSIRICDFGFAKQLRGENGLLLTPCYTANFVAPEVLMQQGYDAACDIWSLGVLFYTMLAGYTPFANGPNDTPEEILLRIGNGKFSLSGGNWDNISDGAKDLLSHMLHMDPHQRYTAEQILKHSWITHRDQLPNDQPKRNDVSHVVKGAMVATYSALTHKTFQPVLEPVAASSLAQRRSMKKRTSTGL
Chain of GSK3A (P49840 whole entry): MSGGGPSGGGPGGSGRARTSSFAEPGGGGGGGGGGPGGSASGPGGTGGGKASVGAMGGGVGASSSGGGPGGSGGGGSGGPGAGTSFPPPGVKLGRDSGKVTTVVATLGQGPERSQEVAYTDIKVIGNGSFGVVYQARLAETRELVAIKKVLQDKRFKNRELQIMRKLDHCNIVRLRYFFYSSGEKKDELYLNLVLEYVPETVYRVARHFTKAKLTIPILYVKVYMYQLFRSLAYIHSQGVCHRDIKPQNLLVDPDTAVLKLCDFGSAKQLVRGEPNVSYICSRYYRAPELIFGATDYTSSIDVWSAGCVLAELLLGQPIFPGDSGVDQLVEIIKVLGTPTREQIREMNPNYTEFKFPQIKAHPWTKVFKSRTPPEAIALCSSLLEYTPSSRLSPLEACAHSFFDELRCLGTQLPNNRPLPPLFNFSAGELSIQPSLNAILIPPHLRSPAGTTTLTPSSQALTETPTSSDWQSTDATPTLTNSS
Chain of NLK (Q9UBE8 whole entry): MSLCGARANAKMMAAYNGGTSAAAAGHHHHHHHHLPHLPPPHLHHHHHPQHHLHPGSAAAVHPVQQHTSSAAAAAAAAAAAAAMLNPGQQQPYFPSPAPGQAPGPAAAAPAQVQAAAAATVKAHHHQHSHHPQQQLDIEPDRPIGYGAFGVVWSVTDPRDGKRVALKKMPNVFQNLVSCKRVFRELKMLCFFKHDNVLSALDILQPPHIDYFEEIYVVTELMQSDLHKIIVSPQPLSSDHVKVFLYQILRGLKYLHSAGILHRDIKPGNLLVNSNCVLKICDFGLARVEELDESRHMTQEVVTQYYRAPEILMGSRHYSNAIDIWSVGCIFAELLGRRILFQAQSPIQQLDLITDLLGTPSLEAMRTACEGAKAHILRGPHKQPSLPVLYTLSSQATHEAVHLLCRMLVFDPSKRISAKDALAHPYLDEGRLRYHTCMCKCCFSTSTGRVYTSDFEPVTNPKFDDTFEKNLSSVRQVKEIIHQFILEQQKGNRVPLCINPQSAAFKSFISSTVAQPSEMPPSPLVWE
T6 sequence (P11802 whole entry): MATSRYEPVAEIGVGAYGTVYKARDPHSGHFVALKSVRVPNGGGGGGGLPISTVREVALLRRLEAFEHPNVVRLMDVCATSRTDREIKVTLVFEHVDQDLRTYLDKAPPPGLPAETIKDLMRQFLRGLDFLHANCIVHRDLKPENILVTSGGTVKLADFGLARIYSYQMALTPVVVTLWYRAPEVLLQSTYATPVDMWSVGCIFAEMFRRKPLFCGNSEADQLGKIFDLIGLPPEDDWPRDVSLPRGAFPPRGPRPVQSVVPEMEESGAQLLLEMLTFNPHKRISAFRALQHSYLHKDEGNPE
T6 sequence (P30281 whole entry partner): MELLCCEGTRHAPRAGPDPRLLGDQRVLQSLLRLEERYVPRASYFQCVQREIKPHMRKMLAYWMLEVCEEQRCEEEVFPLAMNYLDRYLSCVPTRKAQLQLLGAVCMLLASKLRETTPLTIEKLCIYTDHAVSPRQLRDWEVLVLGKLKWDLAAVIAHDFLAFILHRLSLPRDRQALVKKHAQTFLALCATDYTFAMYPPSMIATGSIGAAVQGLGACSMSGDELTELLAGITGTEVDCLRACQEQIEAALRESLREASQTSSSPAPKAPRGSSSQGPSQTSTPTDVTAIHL

Cc1cnc2nc1Nc1cccc(c1)COCc1cc(ccc1OCCN1CCCC1)N2 [Compound 1]
remaining binding at 0.1 µM (TTK): 95% | remaining binding at 0.1 µM (DDR1): 93% | remaining binding at 0.1 µM (BRSK1): 93% | remaining binding at 0.1 µM (CDKL2): 95% | remaining binding at 0.1 µM (ERK8): 99% | remaining binding at 0.1 µM (PRKCI): 80% | remaining binding at 0.1 µM (TRPM6): 85% | remaining binding at 0.1 µM (GRK7): 93% | remaining binding at 0.1 µM (TEC): 94% | remaining binding at 0.1 µM [1]: 49% | remaining binding at 0.1 µM (FLT3(D835Y)): 14% | remaining binding at 0.1 µM [2]: 64% | remaining binding at 0.1 µM (BMPR1A): 97% | remaining binding at 0.1 µM (GSK3A): 100% | remaining binding at 0.1 µM (CDK4-cyclinD1): 76% | remaining binding at 0.1 µM (CLK2): 81% | remaining binding at 0.1 µM (YANK3): 99% | remaining binding at 0.1 µM (NLK): 95% | remaining binding at 0.1 µM (ERBB3): 100% | remaining binding at 0.1 µM (MARK4): 77% | remaining binding at 0.1 µM (CDK4-cyclinD3): 95% | remaining binding at 0.1 µM (IKK-epsilon): 100% | remaining binding at 0.1 µM [3]: 98% | remaining binding at 0.1 µM (PLK4): 96% | remaining binding at 0.1 µM (DYRK2): 90%
